Laboratory results as given in patent US20100311107A1, “Ultra-High Throughput Screening of Natural Products” (priority 2004, published 2010).
Where two headings read alike, the source gives them in different places. Numbered stars: 1 amine (or outer) side, 2 acyl side, 3 side chain; on linkers, the order of the positions; unused ones are H or OH. Bridge positions count the residues as written; N and C are the ends. Square brackets hold non-standard residues; d marks the D form. Peptide text beside a SMILES is read from it. I, II: the chains in the order shown. Actinocin(9to1) = Cc1c2oc3c(C)ccc(C(=O)[*:1])c3nc-2c(C(=O)[*:2])c(N)c1=O; NMeV = CN[C@H](C(=O)O)C(C)C; Sar = CNCC(=O)O

Assays:
Assay type in all cases: cell-based, Escherichia coli
screening strain CM166 = assay: macrodroplet screening assay, zones of inhibition; details: soil actinomycetes in macrodroplets, DNA and biotin in medium
Experimental: After the period of incubation as described above, macrodroplets can be screened for biological activities by a unique technique termed macrodroplet screening assay. The biological activities of compounds secreted by the encapsulated microorganisms and contained within the macrodroplet beads can be detected by, for example, cell growth inhibition. In general, screening strains should first be cultured to a certain cell density (proper OD reads as described in section 5.3.3.) in liquid medium and then plated in semi-solid medium matrix (0.8%), which overlays the macrodroplet beads (see FIG. 1, item 140. Item 145 of FIG. 1 represents the top layer of semi-solid medium matrix containing a selected screening strain). After being incubated overnight, the screening strain can grow throughout the matrix, except in areas where macrodroplet beads release metabolites, which prevent the growth of the screening strain. The inhibition of cell growth may result in zones of inhibition around these beads (see item 155, FIG. 1), which usually can be detected visually.
Next, microorganisms from the soil samples collected as described above were encapsulated to form macrodroplets populated by a single microorganism in each bead, according to the pre-determined cfu count of the particular soil extract. In this process, an aliquot of the soil bacteria suspension was diluted in 10% glycerol to generate an inoculum of the required density. This adjusted suspension was then mixed with nutrient medium, counterselective agents (see above) and 1.4% sodium alginate and the resultant mixture processed through an Inotech Encapsulator® Research device, to produce gel-beads (called macrodroplets) by the formation of droplets of liquid from a fluid stream. The droplets solidified into gel-beads as they came into contact with a calcium chloride bath, which also contained nutrient medium and counterselective agents. After a defined hardening time the macrodroplets were washed to remove excess calcium chloride and to stop the hardening process. Smidsrod and Skjak-Braek, 1990, “Alginate as immobilization matrix for cells,” Trends Biotechnol. 8(3):71-8. Cured macrodroplets containing microorganisms were then spread in dishes from which excess fluid was removed. The macrodroplets subsequently allowed growth of the target organisms and production of secondary metabolites such as anti-microbial agents. Macrodroplets were spread evenly over the plate using a sterile spreader (5,000 particles per plate) and incubated at 28-30° C. for 7 days to allow the growth of the microorganism within, and the production of secondary metabolites.
CM166 (see section 5.3.1.b for details) was used as the test strain in this example. Two to three single colonies of CM166 were inoculated into a shake flask containing 10 ml of MHB medium with 40 μg/ml Tmp and 200 μg/ml Amp. After the cells were cultured at 35° C. for 2-3 hours, an OD reading was performed. If the OD reading was above 0.1 (equivalent to 2×10^8 cfu), the screening strain was ready for dilution. Otherwise, the strain needed to be incubated for longer time until the OD read reached >0.1. Medium for the macrodroplet assay (in 1 L Duran, add 10.5 g MHB power, 4 g agar (0.8%), and 1 g DNA) was autoclaved and cooled to ˜45° C., and ampicillin (25 mg/ml), tetracycline (10 mg/ml), daptomycin (20 mg/ml) and biotin (0.1 μg/ml) were added, together with 2.5 ml screening strain. […]

[1] = system: E. coli screening strain CM166; set-up: unit not given here
From the text: (§1) The level of drug resistance of CM166 was estimated by MIC assay carried out in MHB liquid medium and the results were summarized in Table 9. CM166 is resistant to antibacterial agents whose resistant genes have been incorporated into the strain, but not to other antibacterial drugs whose resistant genes are not incorporated.

[2] = system: E. coli screening strain CM400; set-up: unit not given here
Experimental: (§2) The level of drug resistance of screening strains CM400 and CM435 was evaluated by standard MIC assay in MHB liquid medium and the results are summarized in Table 13. According to the MIC results, CM435 is hypersensitive to Bleomycin, Daunorucibin, Coumermycin A1 and Erythromycin. Screening strain CM435 and others, which are hypersensitive to certain types of antimicrobial agents, are advantageous in detecting bioactive compounds with low concentration in the screening system.

[3] = system: E. coli screening strain DR1234; set-up: unit not given here
Experimental: (§3) The screening strain, DR1234, was established after all desired drug-resistant genes listed in Table 5 had been delivered into the parent E. coli strain, MG1655, by methods described above. Its level of drug resistance was analyzed by the standard minimum inhibitory concentration (MIC) assay in MHB liquid medium (Chantot, et al., 1986, “Antibacterial activity of roxithromycin: a laboratory evaluation,” J. Antibiot, 39(5):660-8) and the result was summarized in Table 7.

[4] = system: E. coli screening strain CM435; set-up: Minimal inhibitory concentrations (MIC90) CM435: unit not given here
[5] = system: E. coli screening strain CM242; set-up: unit not given here
Experimental: (§4) The level of drug resistance of these screening strains (both intermediates and finals) was evaluated by standard MIC assay in MHB liquid medium and the result of Strain CM242 is summarized in Table 12.

[6] = system: lacZ reporter gene of the screening strains (CM191, CM242); assay: S-Gal staining assay on solid medium; details: for lacZ reporter gene expression (S-Gal, blue-colored rings): screening strains on solid medium, drug-impregnated disks, PETG to suppress background
From the text: The screening strains' responses to DNA damaging agents were further confirmed by S-Gal staining assay. When mitomycin C and streptonigrin (both were well-known DNA damaging drugs) and S-Gal, the indicator, were applied to the screening strains growing on solid medium, blue-colored rings were visible around colonies in drug-impregnated disks. […] Actinomycin D was an exception. CM242 was not sensitive to this drug, although it disrupts DNA structure. PETG (2-phenyethyl B-D-thiogalactoside, Sigma, St Louis Mo.), was used in this experiment to suppress unspecific background activity.

[7] = system: E. coli screening strain DR1212; set-up: unit not given here
Experimental: (§5) The level of drug-resistance of screening strain DR1212 was analyzed by standard MIC assay in MHB liquid medium and the result was summarized in Table 11. Similar to screening strains, DR1234 and CM166, DR1212 is also resistant to drugs whose resistant genes have been introduced.

E. coli MG1655 = system: E. coli MG1655; set-up: unit not given here
Experimental: as §3, §1, §5, §4, §2

[8] = system: BW25113 strain containing drug-resistant genes inserted into the bioA locus; assay: drug resistance characterization of strain with Tn7 cassette in bioA locus; details: for resistance conferred: streptothricin at 5 ug/ml, spectinomycin at 100 ug/ml; for resistance of strains having the promoter substitute: sat promoter replaced by Ptrc
From the text: Therefore, a functional copy was introduced by homologous recombination as described hereafter. The drug-resistant gene of interest was synthesized in vitro using PCR with oligonucleotide primers that contained homologous sequences to the target genes and an additional ˜50 by homologous to a particular chromosomal site of the recipient strain. For instance, to insert the Tn7-associated resistance gene cassette dhfrI-sat-aadA into the bioA gene locus of the recipient strain, the primers listed in Table 6 were used. The capitalized portions of these primers hybridized to Tn7 template DNA upstream and downstream of the resistance gene cassette and allowed PCR amplification of the target fragment (Roche (Mannheim, Germany) Long Template PCR System). The ˜50 by additional sequence of these oligonucleotides (low case) afforded regions of homology with the chromosomal target site of the recipient, in this instance, the bioA gene locus (Table 6). The PCR product of the above reaction was introduced into a specialized strain, BW25113 (obtained from the E. coli Genetic Stock Center, strain # 7739) by standard electroporation following the manufacturer's instruction of BioRad (Hercules, Calif.) Gene Pulser, model #1652076, for standard electroporation of E. coli. Double-crossover homologous recombination, mediated by the bacteriophage lambda Red recombinase present in the strains pKD46 [#7630], pKD78 [#7989] or pKD119 [#7990], occurred between the “bioA” locus of the recipient strain and the PCR products via their homologous regions designed in the PCR primers as described above, resulting in the insertion of the drug resistance cassette into the bioA locus of the chromosome (FIG. 3, item 315). […] Once verified by drug resistance characterization and diagnostic PCR assay (see above), the drug resistance-encoding locus from the BW25113/pKD46 strain was introduced into the same locus of the recipient screening strain by standard P1 transduction as described above, also see FIG. 3, item 310.
To increase the gene expression level, the T7 promoter was used to replace the weak promoter of sat gene.

Molecule | Minimal inhibitory concentrations (MIC90) CM166 ([1]; Table 9, MHB medium) | Minimal inhibitory concentrations (MIC90) CM400 ([2]; Table 13, MHB medium) | Minimal inhibitory concentrations (MIC90) DR1234 ([3]; Table 7, MHB medium) | Minimal inhibitory concentrations (MIC90) CM435 ([4]; Table 13, MHB medium) | Minimal inhibitory concentrations (MIC90) CM242 ([5]; second Table 12, MHB medium) | Minimal inhibitory concentrations (MIC90) DR1212 ([7]; Table 11, MHB medium) | Minimal inhibitory concentrations (MIC90) MG1655 (E. coli MG1655; Table 7, MHB medium) | Minimal inhibitory concentrations (MIC90) MG1655 (E. coli MG1655; Table 9, MHB medium) | Minimal inhibitory concentrations (MIC90) MG1655 (E. coli MG1655; Table 11, MHB medium) | Minimal inhibitory concentrations (MIC90) MG1655 (E. coli MG1655; Table 13, MHB medium) | Minimal inhibitory concentrations (MIC90) MG1655 (E. coli MG1655; second Table 12, MHB medium) | other results
O=C(O)/C=C/CC[C@@H]1SC[C@@H]2NC(=O)N[C@@H]21 [lydimycin] | – | – | – | – | – | – | – | – | – | – | – | bioactive compound of actinomycete strains selected with CM166 (screening strain CM166): bioactive
CC(=O)Nc1c2sscc-2n(C)c1=O [thiolutin] | – | – | – | – | – | – | – | – | – | – | – | bioactive compound of actinomycete strains selected with CM166 (screening strain CM166): bioactive
CCn1cc(C(=O)O)c(=O)c2ccc(C)nc21 [Nalidixic Acid] | 800 | >64 | 400 | >64 | >400 | 50 | 6.3 | 6.3 | 6.3 | 8 | 6.3 | lacZ reporter gene expression (S-Gal, blue-colored rings) [6]: not expressed
COc1cc(Cc2cnc(N)nc2N)cc(OC)c1OC [Trimethoprim] | – | – | – | – | – | – | – | – | – | – | – | Minimal inhibitory concentrations (MIC90) CM166 [1]: >400; Minimal inhibitory concentrations (MIC90) CM400 [2]: >64; Minimal inhibitory concentrations (MIC90) DR1234 [3]: >400; Minimal inhibitory concentrations (MIC90) CM435 [4]: >64; Minimal inhibitory concentrations (MIC90) CM242 [5]: >400; lacZ reporter gene expression (S-Gal, blue-colored rings) [6]: not expressed; resistance conferred, concentration ([8]; BW25113 with Tn7 cassette in bioA, native sat promoter): at least 10 ug/ml; Minimal inhibitory concentrations (MIC90) DR1212 [7]: >400
CN[C@@H]1[C@H](O)[C@H](NC)[C@H]2O[C@@]3(O)C(=O)C[C@@H](C)O[C@H]3O[C@@H]2[C@H]1O [Spectinomycin] | >400 | >64 | >400 | >64 | >400 | >400 | 6.3-12.5 | 6.3-12.5 | 6.3-12.5 | 16 | 6.3-12.5 | resistance conferred ([8]; native sat promoter): not; resistance of strains having the promoter substitute [8]: resistant
Bleomycin | 400 | >64 | 0.8 | 8 | 200 | ≦0.4 | ≦0.2-0.4 | ≦0.2-0.4 | ≦0.2-0.4 | 2 | ≦0.2-0.4 | sensitivity of CM435 according to the MIC results ([4]; MHB liquid medium): hypersensitive
Streptothricin | 400 | >64 | 400 | 64 | >400 | 200 | 0.4-1.6 | 0.4-1.6 | 0.4-1.6 | 2 | 0.4-1.6 | resistance conferred ([8]; native sat promoter): not; resistance of strains having the promoter substitute [8]: resistant
Cc1c2oc3c(C)ccc(C(=O)N[C@@H]4C(=O)N[C@H](C(C)C)C(=O)N5CCC[C@H]5C(=O)N(C)CC(=O)N(C)[C@@H](C(C)C)C(=O)O[C@@H]4C)c3nc-2c(C(=O)N[C@@H]2C(=O)N[C@H](C(C)C)C(=O)N3CCC[C@H]3C(=O)N(C)CC(=O)N(C)[C@@H](C(C)C)C(=O)O[C@@H]2C)c(N)c1=O [Actinomycin D] (I: T[dV]P[Sar][NMeV] / II: T[dV]P[Sar][NMeV]; ester I:1-I:C, II:1-II:C; linker I:N-II:N via Actinocin(9to1)) | 50 | 256 | 100 | 256 | 200 | 50.0 | 200 | 200 | 200 | 256 | 200 | sensitivity of CM242 reporter to the drug ([6]; CM242, S-Gal staining): not sensitive
